Where two headings read alike, the source gives them in different places.
Legend:
[1] = target: wild-type un-phosphorylated FGFR3 (Homo sapiens, UniProt P22607); experiment: FGFR Enzymatic Assay (FRET peptide phosphorylation), FGFR3
[2] = target: wild-type un-phosphorylated FGFR1 (Homo sapiens, UniProt P11362); experiment: FGFR Enzymatic Assay (FRET peptide phosphorylation), FGFR1; details: pre-incubated for 4 hours
[3] = target: wild-type un-phosphorylated FGFR4 (Homo sapiens, UniProt P22455); experiment: FGFR Enzymatic Assay (FRET peptide phosphorylation), FGFR4
Method: The inhibitor potency of the exemplified compounds was determined in an enzyme discontinuous assay that measures peptide phosphorylation using FRET measurements to detect product formation. Inhibitors were serially diluted in DMSO and a volume of 0.2 μL was transferred to the wells of a 384-well plate. […] Appropriate controls (enzyme blank and enzyme with no inhibitor) were included on the plate. […] The 10 μL/well reaction concentration of the peptide substrate was 500 nM whereas the ATP concentration was maintained near or below the ATP Km. The ATP Km values were pre-determined in a separate series of experiments. The reaction plate was incubated at 25° C. for 1 hr and the reactions were ended with the addition of 5 μL/well of quench solution (50 mM Tris, 150 mM NaCl, 0.5 mg/mL BSA, pH 7.8; 45 mM EDTA, 600 nM staurosporin, with Perkin Elmer Lance Reagents at 3.75 nM Eu-antibody PY20 and 180 nM APC-Streptavidin). The plate was allowed to equilibrate for ˜10 minutes at ambient temperature before scanning on a PheraStar plate reader (BMG Labtech) instrument.
Either GraphPad prism or XLfit was used to analyze the data. The IC50 values were derived by fitting the data to a four parameter logistic equation producing a sigmoidal dose-response curve with a variable Hill coefficient. Prism equation: Y=Bottom+(Top-Bottom)/(1+10^((Log IC50-X)*Hill slope)); XLfit equation: Y=(A+((B−A)/(1+((X/C)^D)))) where X is the logarithm of inhibitor concentration and Y is the response.
GraphPad prism3 was used to analyze the data. The IC50 values were derived by fitting the data to the equation for a sigmoidal dose-response with a variable slope. Y=Bottom+(Top-Bottom)/(1+10^((Log IC50-X)*Hill Slope)) where X is the logarithm of concentration and Y is the response.
The data in Table 1 was measured in wild-type un-phosphorylated FGFR1, FGFR2, FGFR3, and FGFR4 proteins.

[4] = target: wild-type un-phosphorylated FGFR2 (Homo sapiens, UniProt P21802); experiment: FGFR Enzymatic Assay (FRET peptide phosphorylation), FGFR2
[5] = read-out: FGFR1, wild-type un-phosphorylated FGFR1
[6] = read-out: FGFR4, wild-type un-phosphorylated FGFR4, pre-incubated for 4 hours
[7] = FGFR1, wild-type un-phosphorylated FGFR1
[8] = read-out: FGFR2, wild-type un-phosphorylated FGFR2, pre-incubated for 4 hours

wild-type un-phosphorylated FGFR2, sequence (P21802 22-821): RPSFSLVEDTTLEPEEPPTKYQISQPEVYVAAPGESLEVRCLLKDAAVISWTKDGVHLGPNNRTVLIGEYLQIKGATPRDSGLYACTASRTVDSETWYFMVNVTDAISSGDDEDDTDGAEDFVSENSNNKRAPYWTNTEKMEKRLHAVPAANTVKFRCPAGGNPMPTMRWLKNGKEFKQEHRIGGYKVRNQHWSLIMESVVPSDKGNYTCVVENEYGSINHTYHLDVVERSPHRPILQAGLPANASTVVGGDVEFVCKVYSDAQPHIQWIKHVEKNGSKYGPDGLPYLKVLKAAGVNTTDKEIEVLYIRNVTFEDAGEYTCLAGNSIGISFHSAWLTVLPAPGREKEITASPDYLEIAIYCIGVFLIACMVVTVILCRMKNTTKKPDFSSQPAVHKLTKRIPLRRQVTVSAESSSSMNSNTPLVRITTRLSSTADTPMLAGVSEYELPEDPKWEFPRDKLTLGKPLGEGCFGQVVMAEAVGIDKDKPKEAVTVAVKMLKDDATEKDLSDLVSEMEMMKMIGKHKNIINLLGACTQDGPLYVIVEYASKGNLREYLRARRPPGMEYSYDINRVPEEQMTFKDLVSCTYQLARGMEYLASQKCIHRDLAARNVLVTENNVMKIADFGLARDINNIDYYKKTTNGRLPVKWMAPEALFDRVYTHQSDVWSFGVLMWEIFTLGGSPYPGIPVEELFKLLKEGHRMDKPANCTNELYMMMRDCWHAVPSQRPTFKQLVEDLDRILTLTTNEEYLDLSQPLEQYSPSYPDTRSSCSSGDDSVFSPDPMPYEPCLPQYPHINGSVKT
wild-type un-phosphorylated FGFR3, sequence (P22607 23-806): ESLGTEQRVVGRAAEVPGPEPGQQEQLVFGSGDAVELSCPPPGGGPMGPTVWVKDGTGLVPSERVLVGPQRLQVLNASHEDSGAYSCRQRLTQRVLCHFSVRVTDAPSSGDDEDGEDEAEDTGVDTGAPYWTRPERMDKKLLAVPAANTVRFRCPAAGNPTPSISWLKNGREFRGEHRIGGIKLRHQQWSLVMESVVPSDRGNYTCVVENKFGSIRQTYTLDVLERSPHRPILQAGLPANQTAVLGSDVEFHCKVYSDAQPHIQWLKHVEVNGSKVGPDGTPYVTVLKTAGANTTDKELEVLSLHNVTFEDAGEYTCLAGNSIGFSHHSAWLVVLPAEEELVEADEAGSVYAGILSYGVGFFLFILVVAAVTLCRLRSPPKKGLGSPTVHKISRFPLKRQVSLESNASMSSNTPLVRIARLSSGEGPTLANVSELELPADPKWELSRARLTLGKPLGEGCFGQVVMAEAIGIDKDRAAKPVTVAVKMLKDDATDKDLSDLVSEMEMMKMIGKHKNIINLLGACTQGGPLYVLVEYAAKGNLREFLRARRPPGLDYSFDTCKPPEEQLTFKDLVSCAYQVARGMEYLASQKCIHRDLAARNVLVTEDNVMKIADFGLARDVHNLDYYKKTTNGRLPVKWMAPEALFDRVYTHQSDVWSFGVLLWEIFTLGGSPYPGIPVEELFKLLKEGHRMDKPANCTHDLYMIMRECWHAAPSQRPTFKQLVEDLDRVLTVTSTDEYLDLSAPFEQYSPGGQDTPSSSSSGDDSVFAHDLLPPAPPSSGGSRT
wild-type un-phosphorylated FGFR1, sequence (P11362 22-822): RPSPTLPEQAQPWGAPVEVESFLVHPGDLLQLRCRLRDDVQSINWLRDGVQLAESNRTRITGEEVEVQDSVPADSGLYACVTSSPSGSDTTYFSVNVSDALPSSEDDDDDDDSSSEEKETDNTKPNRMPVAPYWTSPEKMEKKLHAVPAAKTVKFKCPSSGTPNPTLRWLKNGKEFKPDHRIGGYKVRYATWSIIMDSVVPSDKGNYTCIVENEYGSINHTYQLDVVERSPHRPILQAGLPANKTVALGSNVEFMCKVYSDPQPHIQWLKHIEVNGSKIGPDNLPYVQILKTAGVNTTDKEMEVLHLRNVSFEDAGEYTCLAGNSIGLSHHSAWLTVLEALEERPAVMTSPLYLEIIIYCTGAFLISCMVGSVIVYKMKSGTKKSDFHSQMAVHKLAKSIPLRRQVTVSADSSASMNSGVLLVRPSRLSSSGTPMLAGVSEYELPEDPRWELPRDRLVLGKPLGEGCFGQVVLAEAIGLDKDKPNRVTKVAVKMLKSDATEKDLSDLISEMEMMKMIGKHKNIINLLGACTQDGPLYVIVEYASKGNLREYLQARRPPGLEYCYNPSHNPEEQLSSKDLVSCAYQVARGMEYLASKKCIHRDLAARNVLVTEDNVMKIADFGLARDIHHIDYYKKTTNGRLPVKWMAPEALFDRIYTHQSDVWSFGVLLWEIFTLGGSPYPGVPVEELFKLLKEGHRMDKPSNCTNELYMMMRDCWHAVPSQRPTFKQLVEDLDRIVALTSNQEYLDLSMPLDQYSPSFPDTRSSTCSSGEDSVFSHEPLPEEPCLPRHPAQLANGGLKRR
wild-type un-phosphorylated FGFR4, sequence (P22455 22-802): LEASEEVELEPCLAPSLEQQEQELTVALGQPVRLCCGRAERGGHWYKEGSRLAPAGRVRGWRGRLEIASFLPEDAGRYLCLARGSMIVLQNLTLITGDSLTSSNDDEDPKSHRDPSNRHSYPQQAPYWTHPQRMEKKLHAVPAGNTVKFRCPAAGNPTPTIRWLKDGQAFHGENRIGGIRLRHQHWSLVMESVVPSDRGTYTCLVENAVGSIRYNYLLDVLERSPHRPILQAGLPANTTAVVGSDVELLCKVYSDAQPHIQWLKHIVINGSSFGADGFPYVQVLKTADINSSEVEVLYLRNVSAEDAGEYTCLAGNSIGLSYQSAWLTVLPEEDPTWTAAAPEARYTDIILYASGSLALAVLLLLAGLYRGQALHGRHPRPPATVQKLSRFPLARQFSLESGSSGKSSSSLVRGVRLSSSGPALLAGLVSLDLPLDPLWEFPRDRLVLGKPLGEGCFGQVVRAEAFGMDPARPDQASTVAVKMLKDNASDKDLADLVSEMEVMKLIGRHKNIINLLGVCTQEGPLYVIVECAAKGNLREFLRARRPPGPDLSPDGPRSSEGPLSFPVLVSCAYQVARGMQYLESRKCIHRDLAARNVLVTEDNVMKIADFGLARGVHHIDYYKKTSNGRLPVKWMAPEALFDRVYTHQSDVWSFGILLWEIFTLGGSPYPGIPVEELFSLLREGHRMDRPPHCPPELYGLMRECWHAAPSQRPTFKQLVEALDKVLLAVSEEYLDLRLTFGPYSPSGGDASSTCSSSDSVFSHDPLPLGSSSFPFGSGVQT

| SMILES | IC50 [1] | IC50 [2, 5] | IC50 [3, 6] | IC50 [4] | IC50 [2, 7] | IC50 [3] | IC50 [4, 8] |
| --- | --- | --- | --- | --- | --- | --- | --- |
| COc1cc2[nH]nc(-c3cnn(C4CN(C(=O)[C@H]5CCOC5)C4)c3)c2nc1-c1cccc2c1CCC2 [Example 131, (S)-(3-(4-(5-(2,3-Dihydro-1H-inden-4-yl)-6-methoxy-1H-pyrazolo[4,3-b]pyridin-3-yl)-1H-pyrazol-1-yl)azetidin-1-yl)(tetrahydrofuran-3-yl)methanone] | < 6 nM | 6 to 40 nM | 6 to 40 nM | < 6 nM | – | – | – |
| COCC(=O)N1CC[C@H](n2cc(-c3n[nH]c4cc(OC)c(-c5cccc6c5CCC6C#N)nc34)cn2)C1 (single isomer, unassigned) [Example 168] | < 6 nM | 6 to 40 nM | 6 to 40 nM | < 6 nM | – | – | – |
| COc1cc2[nH]nc(-c3ccc(C4(C#N)CCN(CCO)CC4)nc3)c2nc1-c1cccc2c1CCC2 [Example 164, 4-(5-(5-(2,3-Dihydro-1H-inden-4-yl)-6-methoxy-1H-pyrazolo[4,3-b]pyridin-3-yl)pyridin-2-yl)-1-(2-hydroxyethyl)piperidine-4-carbonitrile] | < 6 nM | – | – | < 6 nM | 40 to 100 nM | 40 to 100 nM | – |
| COc1cc2[nH]nc(-c3ccc(C4CCC(NC(=O)[C@H](C)O)C4)nc3)c2nc1-c1cccc2c1CCC2 (stereo partly drawn) [Example 156, (2S)-N-(3-(5-(5-(2,3-Dihydro-1H-inden-4-yl)-6-methoxy-1H-pyrazolo[4,3-b]pyridin-3-yl)pyridin-2-yl)cyclopentyl)-2-hydroxypropanamid] | < 6 nM | 6 to 40 nM | 6 to 40 nM | < 6 nM | – | – | – |
| COc1cc2[nH]nc(-c3ccc(C(C)N4CCOCC4)nc3)c2nc1-c1cccc2c1CCC2 (centres unmarked) [Example 162, 4-(1-(5-(5-(2,3-Dihydro-1H-inden-4-yl)-6-methoxy-1H-pyrazolo[4,3-b]pyridin-3-yl)pyridin-2-yl)ethyl)morpholine] | < 6 nM | – | – | < 6 nM | 40 to 100 nM | > 100 nM | – |
| COc1cc2[nH]nc(-c3cnn(C4CN(C(=O)[C@@H]5CCN5C(C)C)C4)c3)c2nc1-c1cccc2c1CCC2 [Example 142, (S)-(3-(4-(5-(2,3-Dihydro-1H-inden-4-yl)-6-methoxy-1H-pyrazolo[4,3-b]pyridin-3-yl)-1H-pyrazol-1-yl)azetidin-1-yl)(1-isopropylazetidin-2-yl)methanone] | < 6 nM | 6 to 40 nM | – | < 6 nM | – | 40 to 100 nM | – |
| COc1cc2[nH]nc(-c3ccc(C4CCN(C(C)=O)C4)nc3)c2nc1-c1cccc2c1CCC2 (single isomer, unassigned) [Example 103, 1-(3-(5-(5-(2,3-Dihydro-1H-inden-4-yl)-6-methoxy-1H-pyrazolo[4,3-b]pyridin-3-yl)pyridin-2-yl)pyrrolidin-1-yl)ethan-1-one] | < 6 nM | 6 to 40 nM | 6 to 40 nM | < 6 nM | – | – | – |
| COc1cc2[nH]nc(-c3cnn(C4CC4)c3)c2nc1-c1cccc2c1CCC2 [Example 29, 3-(1-Cyclopropyl-1H-pyrazol-4-yl)-5-(2,3-dihydro-1H-inden-4-yl)-6-methoxy-1H-pyrazolo[4,3-b]pyridine] | < 6 nM | – | – | < 6 nM | 40 to 100 nM | 40 to 100 nM | – |
| COc1cc2[nH]nc(-c3ccc(C4CCN(C5CCN(C)C5=O)C4)nc3)c2nc1-c1cccc2c1CCC2 (single isomer, unassigned) [Example 106, 3-(5-(5-(2,3-Dihydro-1H-inden-4-yl)-6-methoxy-1H-pyrazolo[4,3-b]pyridin-3-yl)pyridin-2-yl)-1′-methyl-[1,3′-bipyrrolidin]-2′-one] | < 6 nM | 6 to 40 nM | 6 to 40 nM | < 6 nM | – | – | – |
| COc1cc2[nH]nc(-c3cnn(C4CN(C(=O)[C@H]5C[C@H](O)C5)C4)c3)c2nc1-c1cccc2c1CCC2 [Example 125, (3-(4-(5-(2,3-Dihydro-1H-inden-4-yl)-6-methoxy-1H-pyrazolo[4,3-b]pyridin-3-yl)-1H-pyrazol-1-yl)azetidin-1-yl)((trans)-3-hydroxycyclobutyl)methanone] | < 6 nM | 6 to 40 nM | 6 to 40 nM | < 6 nM | – | – | – |
| Cc1cc2[nH]nc(-c3cnn(C)c3)c2nc1-c1cccc(C)c1C [Example 40, 5-(2,3-Dimethylphenyl)-6-methyl-3-(1-methyl-1H-pyrazol-4-yl)-1H-pyrazolo[4,3-b]pyridine] | < 6 nM | – | – | – | > 100 nM | > 100 nM | 6 to 40 nM |
| COc1cc2[nH]nc(-c3ccc(C4CC(N(C)C(=O)CO)C4)nc3)c2nc1-c1cccc2c1CCC2 (centres unmarked) [Example 178, N-(3-(5-(5-(2,3-Dihydro-1H-inden-4-yl)-6-methoxy-1H-pyrazolo[4,3-b]pyridin-3-yl)pyridin-2-yl)cyclobutyl)-2-hydroxy-N-methylacetamide] | < 6 nM | 6 to 40 nM | 6 to 40 nM | < 6 nM | – | – | – |
| COc1cc2[nH]nc(-c3ccc(C4CC4)nc3)c2nc1-c1cccc2c1CC(O)C2 (centres unmarked) [Example 97, 4-(3-(6-Cyclopropylpyridin-3-yl)-6-methoxy-1H-pyrazolo[4,3-b]pyridin-5-yl)-2,3-dihydro-1H-inden-2-ol] | < 6 nM | – | – | – | 40 to 100 nM | > 100 nM | 6 to 40 nM |
| COc1cc2[nH]nc(-c3ccc(CN4CCN(C)C(=O)[C@@H]4C)nc3)c2nc1-c1cccc2c1CCC2 [Example 199, (S)-4-((5-(5-(2,3-Dihydro-1H-inden-4-yl)-6-methoxy-1H-pyrazolo[4,3-b]pyridin-3-yl)pyridin-2-yl)methyl)-1,3-dimethylpiperazin-2-one] | < 6 nM | – | – | < 6 nM | 40 to 100 nM | 40 to 100 nM | – |
| COc1cc2[nH]nc(-c3cnn(CCN4CCOCC4)c3)c2nc1-c1cccc2c1CCC2 [Example 28, 4-(2-(4-(5-(2,3-Dihydro-1H-inden-4-yl)-6-methoxy-1H-pyrazolo[4,3-b]pyridin-3-yl)-1H-pyrazol-1-yl)ethyl)morpholine] | < 6 nM | – | – | < 6 nM | 40 to 100 nM | > 100 nM | – |
| COc1cc2[nH]nc(-c3cnn(C4CN(C(=O)[C@H]5C[C@](C)(O)C5)C4)c3)c2nc1-c1cccc2c1CCC2 [Example 135, (3-(4-(5-(2,3-Dihydro-1H-inden-4-yl)-6-methoxy-1H-pyrazolo[4,3-b]pyridin-3-yl)-1H-pyrazol-1-yl)azetidin-1-yl)((1r,3r)-3-hydroxy-3-methylcyclobutyl)methanone] | < 6 nM | 6 to 40 nM | 6 to 40 nM | < 6 nM | – | – | – |
| COCC(=O)N1CC(n2cc(-c3n[nH]c4cc(OC)c(-c5cccc6c5CCC6)nc34)cn2)C1 [Example 147, 1-(3-(4-(5-(2,3-Dihydro-1H-inden-4-yl)-6-methoxy-1H-pyrazolo[4,3-b]pyridin-3-yl)-1H-pyrazol-1-yl)azetidin-1-yl)-2-methoxyethan-1-one] | < 6 nM | 6 to 40 nM | – | < 6 nM | – | 40 to 100 nM | – |
| COCCOC(=O)N1CC(n2cc(-c3n[nH]c4cc(OC)c(-c5cccc6c5CCC6)nc34)cn2)C1 [Example 152, 2-Methoxyethyl 3-(4-(5-(2,3-dihydro-1H-inden-4-yl)-6-methoxy-1H-pyrazolo[4,3-b]pyridin-3-yl)-1H-pyrazol-1-yl)azetidine-1-carboxylate] | < 6 nM | – | – | < 6 nM | 40 to 100 nM | 40 to 100 nM | – |
| COc1cc2[nH]nc(-c3cnn(C4CN(C(=O)[C@@H]5CCN5C)C4)c3)c2nc1-c1cccc2c1CCC2 [Example 119, (S)-(3-(4-(5-(2,3-Dihydro-1H-inden-4-yl)-6-methoxy-1H-pyrazolo[4,3-b]pyridin-3-yl)-1H-pyrazol-1-yl)azetidin-1-yl)(1-methylazetidin-2-yl)methanone] | < 6 nM | 6 to 40 nM | – | < 6 nM | – | 40 to 100 nM | – |
| COC(=O)N1CCC(n2cc(-c3n[nH]c4cc(OC)c(-c5cccc6c5CCC6)nc34)cn2)CC1 [Example 20, Methyl 4-(4-(5-(2,3-dihydro-1H-inden-4-yl)-6-methoxy-1H-pyrazolo[4,3-b]pyridin-3-yl)-1H-pyrazol-1-yl)piperidine-1-carboxylate] | < 6 nM | – | – | < 6 nM | 40 to 100 nM | > 100 nM | – |
| COc1cc2[nH]nc(-c3ccc(C4CN(C(=O)CO)C4)nc3)c2nc1-c1cccc2c1CCC2 [Example 176, 1-(3-(5-(5-(2,3-Dihydro-1H-inden-4-yl)-6-methoxy-1H-pyrazolo[4,3-b]pyridin-3-yl)pyridin-2-yl)azetidin-1-yl)-2-hydroxyethan-1-one] | < 6 nM | 6 to 40 nM | – | < 6 nM | – | 40 to 100 nM | – |
| COc1cc2[nH]nc(-c3ccc(C4CN(C(=O)C5CCCO5)C4)nc3)c2nc1-c1cccc2c1CCC2 (centres unmarked) [Example 172, (3-(5-(5-(2,3-Dihydro-1H-inden-4-yl)-6-methoxy-1H-pyrazolo[4,3-b]pyridin-3-yl)pyridin-2-yl)azetidin-1-yl)(tetrahydrofuran-2-yl)methanone] | < 6 nM | – | – | < 6 nM | 40 to 100 nM | 40 to 100 nM | – |
| COc1cc2[nH]nc(-c3ccc(N4CCN5C[C@H](O)C[C@H]5C4)nc3)c2nc1-c1cccc2c1CCC2 [Example 170, (7R,8aS)-2-(5-(5-(2,3-Dihydro-1H-inden-4-yl)-6-methoxy-1H-pyrazolo[4,3-b]pyridin-3-yl)pyridin-2-yl)octahydropyrrolo[1,2-a]pyrazin-7-ol] | < 6 nM | 6 to 40 nM | 6 to 40 nM | < 6 nM | – | – | – |

From patent US12083124B2 (Incyte Corporation, priority 2019, dated 2024)
